Laboratory results taken from BindingDB's records for doi:10.1074/jbc.271.44.27217 (Yamanouchi Pharmaceutical, 1996).

Target: T1, Neuropeptide Y receptor type 2 (Oryctolagus cuniculus, UniProt B6VRS5)
T1 sequence (B6VRS5 whole entry): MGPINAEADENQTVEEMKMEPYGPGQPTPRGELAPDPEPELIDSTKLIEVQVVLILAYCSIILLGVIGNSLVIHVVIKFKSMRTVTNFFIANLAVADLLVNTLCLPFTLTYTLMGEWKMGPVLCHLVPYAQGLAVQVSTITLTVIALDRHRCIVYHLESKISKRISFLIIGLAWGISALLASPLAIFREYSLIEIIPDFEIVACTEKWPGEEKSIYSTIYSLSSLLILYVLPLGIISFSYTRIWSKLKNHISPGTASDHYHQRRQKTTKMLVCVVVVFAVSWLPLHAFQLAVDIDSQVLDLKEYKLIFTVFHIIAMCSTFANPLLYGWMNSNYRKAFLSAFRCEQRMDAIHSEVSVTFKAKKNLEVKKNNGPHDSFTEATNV

CC[C@H](C)[C@H](NC(=O)[C@H](Cc1ccc(O)cc1)NC(=O)[C@H](CCCNC(=N)N)NC(=O)[C@H](CCCNC(=N)N)NC(=O)[C@H](CC(C)C)NC(=O)[C@H](CC(=O)O)NC(=O)[C@H](C)NC(=O)[C@H](C)NC(=O)[C@H](Cc1ccc(O)cc1)NC(=O)[C@H](CCC(N)=O)NC(=O)[C@H](C)NC(=O)[C@H](CCSC)NC(=O)[C@H](CCC(N)=O)NC(=O)[C@H](CCC(=O)O)NC(=O)[C@@H]1CCCN1C(=O)[C@@H](NC(=O)[C@H](C)NC(=O)[C@H](CC(N)=O)NC(=O)[C@H](CC(=O)O)NC(=O)CNC(=O)[C@@H]1CCCN1C(=O)[C@H](Cc1ccc(O)cc1)NC(=O)[C@@H](NC(=O)[C@@H]1CCCN1C(=O)[C@H](CCC(=O)O)NC(=O)[C@H](CC(C)C)NC(=O)[C@@H]1CCCN1C(=O)[C@H](C)N)C(C)C)[C@@H](C)O)C(=O)N[C@@H](CC(N)=O)C(=O)N[C@@H](CCSC)C(=O)N[C@@H](CC(C)C)C(=O)N[C@H](C(=O)N[C@@H](CCCNC(=N)N)C(=O)N1CCC[C@H]1C(=O)N[C@@H](CCCNC(=N)N)C(=O)N[C@@H](Cc1ccc(O)cc1)C(N)=O)[C@@H](C)O [CAS_59763-91-6]
Ki: 340 nM
